In PMC10018336 (Nucleic Acids Research, 2023):
Substitutions are numbered along the chain they refer to.

Columns and labels:
Test in all cases: microscale thermophoresis, RED-NHS labelled protein
Assay type in all cases: binding
Sso2081 (Crn1) [1] = target: T1, Sso2081 (Crn1) (Saccharolobus solfataricus, UniProt Q7LYJ6, D75A)
T1 construct: full length aa 1-178; recombinant in E. coli Rosetta (DE3); N-terminal His6 tag cut with PreScission protease; homodimer
T1 sequence (Q7LYJ6 1-178 D75A): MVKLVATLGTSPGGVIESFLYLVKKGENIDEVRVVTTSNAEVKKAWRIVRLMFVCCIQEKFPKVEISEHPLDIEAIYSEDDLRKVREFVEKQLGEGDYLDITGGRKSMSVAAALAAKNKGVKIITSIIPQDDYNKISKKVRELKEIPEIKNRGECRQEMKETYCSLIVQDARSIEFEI

Sso2081 (Crn1) [2] = target: T2, Sso2081 (Crn1) (Saccharolobus solfataricus, UniProt Q7LYJ6, T10A)
T2 construct: full length aa 1-178; recombinant in E. coli Rosetta (DE3); N-terminal His6 tag cut with PreScission protease; homodimer
T2 sequence (Q7LYJ6 1-178 T10A): T1 sequence (Q7LYJ6 1-178 D75A) with T10A, A75D

Sso2081 (Crn1) [3] = target: T3, Sso2081 (Crn1) (Saccharolobus solfataricus, UniProt Q7LYJ6, K106A)
T3 construct: full length aa 1-178; recombinant in E. coli Rosetta (DE3); N-terminal His6 tag cut with PreScission protease; homodimer
T3 sequence (Q7LYJ6 1-178 K106A): T1 sequence (Q7LYJ6 1-178 D75A) with A75D, K106A

Sso2081 (Crn1) [4] = target: T4, Sso2081 (Crn1) (Saccharolobus solfataricus, UniProt Q7LYJ6, S11A)
T4 construct: full length aa 1-178; recombinant in E. coli Rosetta (DE3); N-terminal His6 tag cut with PreScission protease; homodimer
T4 sequence (Q7LYJ6 1-178 S11A): T1 sequence (Q7LYJ6 1-178 D75A) with S11A, A75D

Sso2081 (Crn1) [5] = target: T5, Sso2081 (Crn1) (Saccharolobus solfataricus, UniProt Q7LYJ6, E17A)
T5 construct: full length aa 1-178; recombinant in E. coli Rosetta (DE3); N-terminal His6 tag cut with PreScission protease; homodimer
T5 sequence (Q7LYJ6 1-178 E17A): T1 sequence (Q7LYJ6 1-178 D75A) with E17A, A75D

## Nc1ncnc2c1ncn2[C@@H]1O[C@@H]2COP(=O)(O)O[C@H]3[C@@H](O)[C@H](n4cnc5c(N)ncnc54)O[C@@H]3COP(=O)(O)O[C@H]3[C@@H](O)[C@H](n4cnc5c(N)ncnc54)O[C@@H]3COP(=O)(O)O[C@H]3[C@@H](O)[C@H](n4cnc5c(N)ncnc54)O[C@@H]3COP(=O)(O)O[C@H]2[C@H]1O [cA4]
Sso2081 (Crn1) [1]
  Kd: 75.5 ± 34.1 nM
Sso2081 (Crn1) [2]
  Kd: 17.3 ± 9.2 nM
Sso2081 (Crn1) [3]
  Kd: 22.8 ± 10.1 nM
Sso2081 (Crn1) [4]
  Kd: 43.2 ± 25.5 nM
Sso2081 (Crn1) [5]
  Kd: 17 ± 1.2 nM
